What was measured:
TAK1 = molecular target: T1, TAK1 (Homo sapiens, UniProt O43318); assay: IP, in vitro kinase assay and Western blot of TAK1 activation in damaged PSC27 stromal cells; type: cell-based
T1 construct: PSC27 cells were treated with bleomycin and cell lysates were subject to anti-p-TAK1-mediated IP precipitation; endogenous in cells; host or cells: PSC27 human prostate stromal cells
T1 sequence (O43318 1-606): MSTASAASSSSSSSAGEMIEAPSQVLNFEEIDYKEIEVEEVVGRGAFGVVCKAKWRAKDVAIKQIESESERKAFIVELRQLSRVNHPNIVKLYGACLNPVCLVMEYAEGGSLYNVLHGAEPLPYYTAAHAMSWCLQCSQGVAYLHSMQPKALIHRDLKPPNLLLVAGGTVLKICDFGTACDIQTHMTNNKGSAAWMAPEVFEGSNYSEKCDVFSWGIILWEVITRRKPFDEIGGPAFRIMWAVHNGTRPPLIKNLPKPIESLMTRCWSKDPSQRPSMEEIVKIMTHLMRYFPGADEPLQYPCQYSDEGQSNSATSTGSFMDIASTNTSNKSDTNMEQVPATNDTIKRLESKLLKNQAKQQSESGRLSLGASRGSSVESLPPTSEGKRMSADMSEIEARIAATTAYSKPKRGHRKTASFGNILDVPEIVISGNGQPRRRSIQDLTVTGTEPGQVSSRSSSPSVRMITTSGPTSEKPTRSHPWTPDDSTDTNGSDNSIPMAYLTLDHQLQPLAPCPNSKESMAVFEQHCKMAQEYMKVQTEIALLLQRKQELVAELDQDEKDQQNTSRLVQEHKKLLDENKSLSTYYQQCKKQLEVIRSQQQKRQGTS
Protocol: In the presence of the TAK1 inhibitor 5Z-7, PSC27 cells were treated with bleomycin and cell lysates were subject to anti-p-TAK1-mediated IP precipitation. IP products were analyzed by in vitro kinase assay, and MKK6 was used as TAK1 substrate. p38 phosphorylation was analyzed by Western blot with GAPDH as the loading control. In addition, IL-1α (20 ng/ml) was used to treat stromal cells and was further analyzed by similar IP and in vitro kinase assay.

NF-κB complex = assay: NF-κB activation in bleomycin-treated stromal cells (nuclear translocation, luciferase reporter); type: cell-based, human
Protocol: FIG. 22. The stromal cells pre-transduced with the NF-κB transcriptional luciferase reporter vector were treated with bleomycin and/or RAD001. The cells were collected on Day 7 and detected for the fluorescence signal intensity of the reporter vector.
FIG. 32. Detection of NF-kB transcriptional activity based on the reporter vector. Stromal cells were treated with bleomycin along with the PI3K small molecule inhibitor LY294002 (1 μM), Akt inhibitor MK-2206 (100 nM), mTOR inhibitor RAD001 (50 nM), p38 inhibitor SB203580 (10 μM) and TAK1 inhibitor 5Z-7 (500 nM), respectively, and cell lysates were used for determining luciferase activity.
The […] vector pBABE-puro-IκBα-mut (Super repressor) containing two phosphorylated mutant sites of IKK at S32A and S34A on the IκBα protein encoding sequence were used for transfection of lentivirus-packing cell line phoenix. Lentiviruses were subsequently used to infect PSC27 stromal cell line, whereas 1 μg/ml puromycin was used to screen positive clones. As another method, 5 μm of the small molecule inhibitor Bay11-7082 (purchased from Selleck) was used for NF-κB activity control. Stromal cells were subsequently exposed to several different forms of cytotoxicity, with the resulting phenotype recorded in time, and the relevant gene expression analyzed. The resulted conditioned culture medium produced from cells processed in this way was collected for various detection of epithelial cells.
Even so, is TAK1 activated indirectly by upstream DDR signaling associated with activation of a core transcription factor, NF-κB complex involved in the broad-spectrum expression of the SASP? The NF-κB complex was previously reported to be mediated by mono-ubiquitination of IκB kinase subunit γ (IKKγ) in cytoplasm. After isolating nucleus from cytoplasmic proteins using a kit, the inventor finds that TAK1 phosphorylation is associated with nuclear translocation of p50 and p65, the two main subunits of NF-κB complex (FIG. 4).

PSC27 cells = assay: DNA damage response foci, colony formation, cell cycle arrest and SA-β-Gal in PSC27 cells; type: cell-based, human
Protocol: Experimental Treatment In Vitro • 100 nM docetaxel (DTX), 100 nM paclitaxel (PTX), 200 nM vincristine (VCR), 50 μg/ml bleomycin (BLEO), 1 μM mitoxantrone (MIT), or 10 Gy ^137CS ionizating radiation (γ-radiation at 743 rad/min, RAD) was added to the culture medium when PSC27 cells grown to 80% (PSC27-Pre) to produce cell damage. After drug treatment for 6 hours, the cells were simply washed by PBS for 3 times and kept in the culture medium for 7 to 10 days, followed by subsequent experiments. […] Immunofluorescence and Histochemical Analysis • Mouse monoclonal antibody anti-phospho-Histone H2A.X (Ser139) (clone JBW301, Millipore) or mouse monoclonal antibody anti-Phosphor-53BP1 (Cat #sc-135748, Santa Cruz), and secondary antibody Alexa Fluor® 488 (or 594)-conjugated F(ab′)2 were added sequentially to slides on which cells were fixed. Nuclei were counterstained with 2 μg/ml of 4′,6-diamidino-2-phenylindole (DAPI). The most representative image was selected from the 3 observation fields for data analysis and result presentation. FV1000 laser scanning confocal microscopy (Olympus) was used to obtain cellular confocal fluorescence images to determine the extent of DNA damage. • Antibody anti-TAK1 used for histological IHC staining in clinical prostate, non-small cell lung cancer patients and breast cancer patients, was purchased from Proteintech, idib.

[1] = test system: prostate-derived stromal cell line PSC27 and epithelial cancer cell line PC3 xenograft tumors; assay: Preclinical chemotherapy trial, subcutaneous PC3/PSC27 tissue-recombinant tumors, terminal tumor volume; type: in vivo, ICR-SCID mice
Protocol: All experimental mouse experiments were carried out in strict accordance with the relevant regulations of the Institutional animal care and use committee (IACUC) of the shanghai Institute of Life Sciences of the Chinese Academy of Sciences. ICR-SCID mice at an age of about 6 weeks (about 25 g in body weight) were used in this patent-related animal experiment. Stromal cells PSC27 and epithelial cells were mixed at a ratio of 1:4, with each implant containing 1.25×10^6 cells for tissue recombination. The transplant tumor was implanted into mice subcutaneously, and the animals were euthanized at the end of Week 8 after transplantation. The tumor volume was calculated according to the following formula: V=(π/6)×((l+w)/2)^3 (V, volume; l, length; w, width). Similarly, lung and breast cancer xenograft tumors were formed by tissue recombination with A549 (non-small cell lung cancer cell line) and W138 (lung fibroblast line), MDA-MB-231 (triple negative breast cancer cell line) and HBF1203 (breast fibroblast line), respectively.
In the preclinical chemotherapy trial, mice subcutaneously transplanted with tumors were fed standard experimental diet. After 2 weeks, the chemotherapeutics mitoxantrone (dose of 0.2 mg/kg) and/or SASP inhibitors (500 μl, dose of 10 mg/kg, RAD001, SB203580 and 5Z-7 were purchased from Tocris; LYTAK, purchased from Lilly Co ((Indianapolis, Ind.), 5 mg/kg) were administrated intraperitoneally. The timepoint was the first day of Week 3, 5, 7, and the whole course of treatment was composed of three cycles of administration, each cycle lasted for 2 weeks. After the course of treatment, mouse […] was collected for tumor measurement and histological analysis. Each mouse received cumulatively 0.6 mg mitoxantrone/kg body weight and 30 mg SASP inhibitor/kg body (15 mg/kg body weight for LYTAK1). Mice xenografted with lung cancer and breast cancer tumor received bleomycin (totally 0.3 mg/kg) and doxorubicin (totally 0.2 mg/kg), respectively. The timepoints and frequency were same as the administration of mitoxantrone. The chemotherapeutic trial was performed until the end of Week 8, and the mice were dissected immediately after death. The transplant tumors were collected and used for analysis in a pathological system.
In order to simulate clinical conditions as much as possible, the present inventor inoculated the subcutaneous site of immunodeficient mice with an admixture of prostate-derived stromal cell line PSC27 and epithelial cancer cell line PC3. The mice subsequently underwent a regimen of 8-week preclinical chemotherapy, which included three single- or double-drug treatments based on a series of pre-experimental data (FIGS. 64 and 65). In the absence of stromal cells, PC3 cells were still able to form tumors under screening pressure caused by chemotherapeutics, though their volumes were smaller than that generated in the case of concurrent inoculation of stromal cells and cancer cells. Such difference also objectively confirmed the tumor-promoting effect of the microenvironment (FIG. 66).

COc1cc(O)c2c(c1)/C=C/C[C@H](O)[C@H](O)C(=O)/C=C\C[C@H](C)OC2=O [5Z-7, 5z-7-oxozeaenol]
activation of TAK1 in damaged stromal cells (TAK1; bleomycin-treated PSC27, 500 nM 5Z-7, IP and in vitro kinase assay with MKK6): largely abolished | physical interaction between TAK1 and TRAF6 (TAK1; p-TAK1 antibody IP after bleomycin): abolished | NF-κB transcriptional activity (reporter vector) (NF-κB complex; bleomycin plus inhibitor, luciferase reporter): significantly reduced | phosphorylation of TAK1 and nuclear translocation of p50/p65 (NF-κB complex; bleomycin-treated stromal cells, cytosolic and nuclear proteins): significantly inhibited | inhibitory effect on NF-κB activation and IL-8 compared with the other inhibitors (NF-κB complex; vs LY294002, MK-2206, SB203580): stronger inhibitory effect | colony forming ability of PSC27 cells (PSC27 cells; bleomycin and/or 5Z-7, Day 7): not associated with the inhibition of TAK1 activity | single-cell level of DDR foci (PSC27 cells; bleomycin-treated cells, presence or absence of inhibitor): did not change significantly | effect on tumor growth ([1]; TAK1 inhibitor alone): does not appear to alter tumor growth trends | further decrease in terminal tumor volume ([1]; inhibitor combined with mitoxantrone (MIT) vs mitoxantrone alone (group 8 vs group 6), end of Week 8): 60%

From patent publication US11344601B2, “Tumor microenvironment-related target TAK1 and application thereof in inhibition of tumor” (Shanghai Institutes for Biological Sciences, Chinese …, priority 2017, dated 2022)
